These results are taken from US9545384B2, “Nanoparticles comprising drug, a non-ionizable cellulosic polymer and tocopheryl polyethylene glocol succinate” (Bend Research, Inc., priority 2007, dated 2017).

Values after ≈ are worked out from the molar mass of the structure shown.

A short description of data set [1]: Solubility of drug in water. The data set is classed as physicochemical.
A short description of a further data set: Log P. The data set is classed as physicochemical. The settings on record: octanol/water. The source says:
The first property of hydrophobic drugs is that they are extremely hydrophobic. Log P, defined as the base 10 logarithm of the ratio of the drug solubility in octanol to the drug solubility in water, is a widely accepted measure of hydrophobicity. By “extremely hydrophobic” is meant that the Log P value of the drug is at least 4.0, preferably at least 4.5, and most preferably at least 5.0. Log P may be measured experimentally or calculated using methods known in the art. When using a calculated value for Log P, the highest value calculated using any generally accepted method for calculating Log P is used. Calculated Log P values are often referred to by the calculation method, such as C log P, A log P, and M log P. The Log P may also be estimated using fragmentation methods, such as Crippen's fragmentation method (27 J. Chem. Inf. Comput. Sci. 21 (1987)); Viswanadhan's fragmentation method (29 J. Chem. Inf. Comput. Sci. 163 (1989)); or Broto's fragmentation method (19 Eur. J. Med. Chem.-Chim. Theor. 71 (1984). Preferably the Log P value is calculated by using the average value estimated using Crippen's, Viswanadhan's, and Broto's fragmentation methods.

Data set [2] in a line: Solubility of drug in model fasted duodenal (MFD) solution. The data set is classed as physicochemical. The settings on record: fassgf or other biorelevant.
For data set [3] the following is noted: for Observations: pH 6.5. On the procedure:
The polymer is a poorly aqueous soluble non-ionizable cellulosic polymer. […] An appropriate PBS solution is an aqueous solution comprising 20 mM sodium phosphate (Na2HPO4), 47 mM potassium phosphate (KH2PO4), 87 mM NaCl, and 0.2 mM KCl, adjusted to pH 6.5 with NaOH. A test to determine whether the polymer is insoluble may be performed as follows. The polymer is initially present in bulk powder form with average particle sizes of greater than about 1 micron. The polymer alone is administered at a concentration of 0.2 mg/mL to the PBS solution and stirred for approximately 1 hour at room temperature. Next, a nylon 0.45 μm filter is weighed, and the polymer solution is filtered. The filter is dried overnight at 40° C., and weighed the following morning. The amount of polymer dissolved is calculated from the amount of polymer added to the PBS solution minus the amount of polymer remaining on the filter (mg). […] These polymers were evaluated using the following procedure to determine their aqueous solubility. First, 0.2 mg/mL of the polymer is added to a PBS solution consisting of 20 mM Na2HPO4, 47 mM KH2PO4, 87 mM NaCl, and 0.2 mM KCl, adjusted to pH 6.5 with NaOH. The polymer is stirred in the PBS solution for approximately 1 hour at room temperature. Next, the polymer solution is filtered through a nylon 0.45 μm filter that had been weighed dry prior to filtration. The filter is dried overnight at 40° C., and weighed the following morning. The amount of soluble polymer is calculated from amount of polymer added to form the polymer solution minus the amount of polymer remaining on the filter.

For orientation: solubility means how much of the substance goes into solution per volume. As a reminder, the logP is a log measure of how a compound divides between an organic and an aqueous phase. Take `Cc1onc(-c2ccccc2)c1-c1ccc(S(N)(=O)=O)cc1` [Drug 1, 4-(5-methyl-3-phenyl-4-isoxazolyl)benzenesulfonamide]: in data set [1], the solubility is ~10 µg/mL (≈ 31.8 µM). The logP in the data set “Log P” is ~3.

In the case of `CC[C@@H]1C[C@H](N(Cc2cc(C(F)(F)F)cc(C(F)(F)F)c2)C(C)=O)c2cc(C(F)(F)F)ccc2N1C(=O)OC(C)C` [Drug 2, [2R,4S]-4-[acetyl-(3,5-bis-trifluoromethyl-benzyl)-amino]-2-ethyl-6-trifluoromethyl-3,4-dihydro-2H-quinoline-1-carboxylic acid isopropyl ester], the solubility in data set [2] is ~11 µg/mL (≈ 18.4 µM).

For the compound `Cc1ccc(-c2cc(C(F)(F)F)nn2-c2ccc(S(N)(=O)=O)cc2)cc1` [Drug 3, 4-[5-(4-methylphenyl)-3-(trifluoromethyl)-1H-pyrazol-1-yl]benzenesulfonamide, reference compound], the solubility in data set [2] was ~40 µg/mL (≈ 105 µM).

As to `CCOC(=O)N1c2ccc(C(F)(F)F)cc2[C@@H](N(Cc2cc(C(F)(F)F)cc(C(F)(F)F)c2)C(=O)OC)C[C@H]1CC` [Torcetrapib, [2R,4S]4-[(3,5-bis-trifluoromethyl-benzyl)-methoxycarbonyl-amino]-2-ethyl-6-trifluoromethyl-3,4-dihydro-2H-quinoline-1-carboxylic acid ethyl ester], in data set [1], the solubility was < 0.1 µg/mL.

Regarding Cellulose Acetate, in data set [3], the “Soluble at pH 6.5” value is reported as 0.03 mg/mL and the Observations result was “Fine particle”.

For the compound Ethylcellulose, in data set [3], the “Soluble at pH 6.5” value is <0.001 mg/mL and the Observations result is recorded as “Fine particle”.
